Among the data in publication PMC4329990 (2014) are Ka values, retold here.

The assay concerns d(C3TA2)3C3/d(T2AG3)4 duplex (DNA, duplex) CCCTAACCCTAACCCTAACCC/TTAGGGTTAGGGTTAGGGTTAGGG
The experiment in a line: fluorescence titration, IT/IN, modified Benesi-Hildebrand. As to conditions: citrate 10 mM; 10 mM citrate pH 7.0, <1% ethanol, 25 °C.
`O=c1c(O)c(-c2ccc(O)c(O)c2)oc2cc(O)ccc12` yielded a Ka of 46200 M⁻¹.

`O=c1c(O)c(-c2ccccc2)oc2ccccc12` gave a Ka of 86700 M⁻¹.

Regarding `O=c1c(O)c(-c2ccc(O)c(O)c2)oc2cc(O)cc(O)c12`, the Ka was found to be 10400 M⁻¹.
